Results reported in US8314126B2, “Disubstituted phenylpiperdines/piperazines as modulators of dopamine neurotransmission” (NSAB, Filial af Neurosearch Sweden AB, Sverige, priority 2004, dated 2012).

What was measured:
[1] = Activity of compounds of Formula 1 (test not specified); details: test not stated
[2] = Oral bioavailability in rat; format: in vivo; details: plasma, 12.5 umol/kg, orally 12.5 μmol/kg vs intravenously 5 μmol/kg, ratio of AUC
Description: Experiments are performed 24 hours after implantation of arterial and venous catheters. Test compound is administered orally at 12.5 μmol/kg or intravenously at 5 μmol/kg using the venous catheters, n=3 per group. Arterial blood samples are then taken during six hours at 0, 3, 9, 27, 60, 120, 180, 240, 300 and, 360 minutes after administration of the test compound. The oral bioavailability was calculated as the ratio of the AUC (Area under curve) obtained after oral administration over the AUC obtained after intravenous administration for each rat. The parameter AUC was calculated according to the following: […]
AUC: the area under the plasma concentration versus time curve from time zero to the last concentration measured (Clast), calculated by the log/linear trapezoidal method.
The levels of test compound are measured by means of liquid chromatography-mass spectrometry (LC-MS) (Hewlett-Packard 1100MSD Series). The LC-MS module includes a quaternary pump system, vacuum degasser, thermostatted autosampler, thermostatted column compartment, diode array detector and API-ES spray chamber. Data handling was performed with a HP ChemStation rev.A.06.03. system. Instrument settings:MSD mode: Selected ion monitoring (SIM) MSD polarity: Positiv Gas temp: 350° C. Drying gas: 13.0 l/min Nebulizer gas: 50 psig Capillary voltage: 5000 V Fragment or voltage: 70 V
Analytical column: Zorbax eclipse XDB-C8 (4.6*150 mm, 5 μm) at 20° C. The mobile phase was acetic acid (0.03%) (solvent A) and acetonitrile (solvent B). The flow rate of the mobile phase was 0.8 ml/min. The elution was starting at 12% of solvent B isocratic for 4.5 min, then increasing linearity to 60% over 4.5 min.
Extractions procedure: Plasma samples (0.25-0.5 ml) were diluted with water to 1 ml, and 60 pmol (100 μl) internal standard (−)-OSU6241 was added. The pH was adjusted to 11 by the addition of 25 μl saturated Na2CO3. […] The selective ion (MH^+) was monitored for each Example, and MH^+ 296 for (−)-OSU6241 ((3-[3-(ethylsulfonyl)phenyl]-1-propylpiperidine). […]

[3] = Metabolic stability in rat liver microsomes; format: in vitro ADME; details: 15 minutes incubation at 37° C., NADPH
Description: Rat liver microsomes were isolated as described by Forlin (1980) Tox Appl Pharm. 54(3) 420-430, with minor modifications e.g. 3 mL/g liver of a 0.1 M Na/K*PO4 buffer with 0.15M KCl, pH 7.4, (buffer 1) was added before homogenisation, the homogenate was centrifuged for 20 minutes instead of 15, the supernatant was ultracentrifuged at 100.000 g instead of 105.000 g and the pellet from the ultracentrifugation was resuspended in 1 mL/g liver of 20% v/v 87% glycerol in buffer 1.
1 μL of, 0.2 or 1 mM test substance diluted in water, and 10 μL 20 mg/mL rat liver microsome were mixed with 149 μL, 37° C. buffer 1 and the reaction was started by addition of 40 μL 4.1 mg/mL NADPH. After 0 or 15 minutes incubation at 37° C. in a heating block (LAB-LINE, MULTI-BLOK Heater or lab4you, TS-100 Thermo shaker at 700 rpm) the reaction was stopped by addition of 100 μL pure acetonitrile. […] The test compound was analysed using HPLC-MS (Hewlett-Packard 1100MSD Series) with a Zorbax SB-C18 column (2.1*150 mm, 5 μm) using 0.03% formic acid and acetonitrile as mobile phase (gradient) or a Zorbax Eclipse XDB-C18 (3*75 mm, 3.5 μm) using 0.03% acetic acid and acetonitrile as mobile phase (gradient). The 15 mM turnover was calculated as the fraction of test compound eliminated after 15 minutes, expressed in percent of 0 mM levels, i.e. 100*[conc test compound at 0 mM—concentration at 15 min]/cone at 0 mM. […]

[4] = system: levels of dopamine and norepinephrine in the cortex; assay: Microdialysis in awake and freely moving rats, cortex; format: in vivo, rat
Description: Remeron is injected (s.c.) at time-point 0. The values depicted in the graph represent percent of control in relation to baseline values. The microdialysis was performed in awake and freely moving rats. Error-bars=SEM
Example 2 is injected (s.c.) at time-point 0. The values depicted in the graph represent percent of control in relation to baseline values. The microdialysis was performed in awake and freely moving rats. Error-bars=SEM
Male Sprague-Dawley rats weighing 220-320 g were used throughout the experiments. Before the experiment the animals were group housed, five animals in each cage, with free access to water and food. The animals were housed at least one week after arrival prior to surgery and use in the experiments. Each rat was used only once for microdialysis.
We use a modified version (Waters, Lofberg et al. 1994) of the I-shaped probe (Santiago and Westerink 1990). […] Co-ordinates were calculated relative to bregma; dorsal striatum AP +1, ML ±2.6, DV −6.3; Pf cortex, AP +3.2, 8° ML ±1.2, DV −4.0 according to (Paxinos and Watson 1986). […]
30 μl of each sample was injected into the chromatograph. […] The currents generated by the two EC detectors are converted to digital data and evaluated using Chromelion software (Dionex, Sunnyvale, Calif.) on a PC. The method sample turn over time was 4.5 min and two parallel experiments are normally analysed simultaneously on the system. […]

MK-801 pre-treated rats = assay: Locomotor activity in MK-801 pre-treated rats; details: MK-801 0.7 mg/kg i.p. alone, recorded between 30 and 60 minutes, ± SEM

## CCCN1CCC(c2cccc(S(C)(=O)=O)c2C(F)(F)F)CC1 [4-[3-(methylsulfonyl)-2-(trifluoromethyl)phenyl]-1-propylpiperidine]
[1]
  activity: inactive

## CCCN1CCC(c2cccc(S(C)(=O)=O)c2F)CC1 [Example 1, 4-[2-FLUORO-3-(METHYLSULFONYL)PHENYL]-1-PROPYLPIPERIDINE]
[2]
  bioavailability: ~100%

## CCN1CCC(c2cccc(S(C)(=O)=O)c2F)CC1 [Example 2, 1-ETHYL-4-[2-FLUORO-3-(METHYLSULFONYL)PHENYL]-PIPERIDINE]
[3]
  turnover at 15 minutes: 1%
[2]
  bioavailability: 87%
[4]; 50 μmol/kg s.c., pf. cortex, FIG. 2
  levels of dopamine and norepinephrine in the cortex: elevate the levels of dopamine and norepinephrine in the cortex

## CCCN1CCC(c2cccc(C(F)(F)F)c2C#N)CC1 [Example 7, 2-(1-PROPYLPIPERIDIN-4-YL)-6-(TRIFLUOROMETHYL)BENZONITRILE]
[2]
  bioavailability: 29%

## C[C@]12N[C@H](Cc3ccccc31)c1ccccc12 [MK-801]
MK-801 pre-treated rats
  Locomotor activity, MK-801: 51333 ± 2148 counts/30 min

## CN1CCN2c3ncccc3Cc3ccccc3C2C1 (centres unmarked) [mirtazapine, reference compound]
[4]; 10 mg/kg s.c., cortex, FIG. 1
  extracellular norepinephrine and dopamine in the cortex: increase predominantly extracellullar norepinephrine and dopamine in the cortex
